According to PMC10739871, “Structural insights into the regulation, ligand recognition, and oligomerization of bacterial STING” (Nature Communications, 2023):
Several values for one entry are separate records, joined by “and”; a condition that tells them apart may be missing. Equal entries are not always repeated. Where two headings read alike, the source gives them in different places.

Key:
[1] = test system: T2 phage infection of E. coli cells overexpressing ElTIR-STING; type: cell-based, E. coli BL21(DE3) / phage T2; details: for OD600: replicates 1-3
[2] = target: ElSTING; test: ITC binding of cAA to ElSTING; set-up: species or system Epilithonimonas lactis; details: ITC (Supplementary Fig. 5)
Description: ITC experiments were performed at 25 °C using nano-ITC (TA Instruments). Purified RiSTING and ElSTING were exchanged into assay buffer containing 20 mM Tris pH 8.0, 150 mM NaCl. 10 mM stock of cGG (Item No. 17144, Cayman Chemical) and cAA (Item No. 17753, Cayman Chemical) were prepared by dissolving in the same buffer. 20 injections of ligand (0.9-1.2 mM) were sequentially titrated to tested STING protein solution (30-100 μM) with a stirring speed of 300 rpm. Data were fit to “independent” model to derive ΔH, ΔS, and Kd values using NanoAnalyze v3.12.5 (TA Instruments).

[3] = test system: ElTIR-STING; test: Gel filtration / SEC-MALS of ElTIR-STING with cAA; set-up: species or system Epilithonimonas lactis
Description: Purified protein samples for SEC-MALS analysis were diluted in buffer containing 50 mM Tris pH 8.0, 200 mM NaCl, 1 mM TCEP to a final concentration of 1 mg/ml. The protein sample was incubated with 0.11 mM cyclic di-nucleotide at 4 °C for 1 hour, followed by centrifugation at 4 °C, 18,000x g for 30 mins to remove precipitated proteins. The final protein sample was analyzed using GE AKTA UPC Purifier FPLC system coupled to a Wyatt Optilab T-rex refractive index detector and a Wyatt miniDAWN TREOS to obtain O.D.280, molar mass and refractive index (dRI).

[4] = test system: ElTIR-STING; test: NAD+ cleavage activity assay, ElTIR-STING; type: biochemical, Epilithonimonas lactis; details: for ΔRFU after 10 mins (single replicates): 500 μM ε-NAD; for ΔRFU after 10 mins, Average: n = 3
Description: The NAD^+ cleavage activity of the N-terminal TIR domain of full-length TIR-STING proteins were accessed using the previously described protocol. Briefly, 100 μl reaction mixture containing ligand (cGG or cAA) at the indicated concentration and 500 μM ε-NAD (Product No. N2630, Sigma-Aldrich) in the assay buffer (20 mM HEPES pH 7.5, 100 mM KCl) was pre-incubated at room temperature. Tested TIR-STING protein (0.5–1 μM) was then added to start the reaction. The fluorescence signal was continuously monitored for 1 hour at an emission wavelength of 410 nm with excitation at 300 nm using Synergy H1 microplate reader (BioTek). The changes of relative fluorescence units at different time points were recorded.

[5] = test system: E. coli cells overexpressing ElTIR-STING; test: E. coli toxicity assay (growth curves), ElTIR-STING with or without cAA; type: cell-based, E. coli BL21(DE3); details: for OD600: replicates 1-3
Description: To access the cytotoxicity of TIR-STING proteins and their variants, E. coli BL21(DE3) cells which produce endogenous cGG were used. The cells carrying expression plasmid pET21 or pET24 with indicated TIR-STING were first inoculated into 3-ml LB medium and incubated at 37 °C with shaking overnight. The overnight culture was then diluted by fresh LB medium to an optical density at 600 nm (O.D.600) of ~0.1-0.2, followed by addition of 0.5 mM IPTG and 30 mM nicotinamide to induce the overexpression of tested proteins. […] To access the anti-phage ability of full-length LrTIR-STING, E. coli BL21(DE3) cells containing empty vector, pET24_LrTIR-STING or pET24_LrTIR-STING lid-to-loop mutant was first cultivated at 37 °C overnight and then diluted with fresh medium to O.D.600 of 0.1-0.2, followed by 0.5 mM IPTG induction and infected with T2 phage at a multiplicity of infection (MOI) of 10 or 0.01. The E. coli BL21(DE3) cells without IPTG induction and T2 phage infection was served as control.

Structure (SMILES): Nc1ncnc2c1ncn2[C@@H]1O[C@@H]2COP(=O)(O)O[C@H]3[C@@H](O)[C@H](n4cnc5c(N)ncnc54)O[C@@H]3COP(=O)(O)O[C@H]2[C@H]1O [cAA, 3′3′-cyclic di-AMP]
- resistance to phage infection (in words) ([1]; 100 μM cAA in growth medium, T2 phage): did not confer resistance
- OD600 ([1]; MOI = 0.01, time 30 min): 0.015 and 0.017 and 0.016
- OD600 ([1]; MOI = 0.01, time 45 min): 0.021 and 0.024 and 0.023
- OD600 ([1]; MOI = 0.01, time 60 min): 0.030 (2×) and 0.032
- OD600 ([1]; MOI = 0.01, time 75 min): 0.036 (2×) and 0.038
- OD600 ([1]; MOI = 0.01, time 90 min): 0.040 (2×) and 0.043
- OD600 ([1]; MOI = 0.01, time 105 min): 0.042 and 0.045 and 0.041
- OD600 ([1]; MOI = 0.01, time 120 min): 0.046 (2×) and 0.050
- OD600 ([1]; MOI = 0.01, time 135 min): 0.050 and 0.053 and 0.049
- OD600 ([1]; MOI = 0.01, time 150 min): 0.054 and 0.057 and 0.062
- OD600 ([1]; MOI = 0.01, time 165 min): 0.058 and 0.060 and 0.056
- OD600 ([1]; MOI = 0.01, time 180 min): 0.061 and 0.064 and 0.058
- OD600 ([1]; MOI = 1, time 30 min): 0.017 and 0.015 and 0.011
- OD600 ([1]; MOI = 1, time 45 min): 0.019 and 0.018 and 0.012
- OD600 ([1]; MOI = 1, time 60 min): 0.021 and 0.019 and 0.014
- OD600 ([1]; MOI = 1, time 75 min): 0.021 and 0.020 and 0.015
- OD600 ([1]; MOI = 1, time 90 min): 0.023 and 0.021 and 0.016
- OD600 ([1]; MOI = 1, time 105 min): 0.025 and 0.023 and 0.018
- OD600 ([1]; MOI = 1, time 120 min): 0.027 and 0.025 and 0.019
- OD600 ([1]; MOI = 1, time 135 min): 0.028 and 0.025 and 0.020
- OD600 ([1]; MOI = 1, time 150 min): 0.029 and 0.027 and 0.021
- OD600 ([1]; MOI = 1, time 165 min): 0.030 and 0.028 and 0.022
- OD600 ([1]; MOI = 1, time 180 min): 0.030 and 0.029 and 0.022
- OD600 ([1]; Uninfected, time 30 min): 0.025 and 0.017 (2×)
- OD600 ([1]; Uninfected, time 45 min): 0.032 and 0.023 and 0.024
- OD600 ([1]; Uninfected, time 60 min): 0.034 and 0.033 (2×)
- OD600 ([1]; Uninfected, time 75 min): 0.049 and 0.047 and 0.046
- OD600 ([1]; Uninfected, time 90 min): 0.067 and 0.064 and 0.063
- OD600 ([1]; Uninfected, time 105 min): 0.091 and 0.087 (2×)
- OD600 ([1]; Uninfected, time 120 min): 0.121 and 0.117 and 0.116
- OD600 ([1]; Uninfected, time 135 min): 0.160 and 0.155 and 0.152
- OD600 ([1]; Uninfected, time 150 min): 0.208 and 0.200 and 0.197
- OD600 ([1]; Uninfected, time 165 min): 0.262 and 0.252 and 0.247
- OD600 ([1]; Uninfected, time 180 min): 0.327 and 0.313 and 0.308
- OD600 ([1]; Uninfected, time 195 min): 0.398
- binding affinity (in words) [2]: micromolar affinity
- molecular weight of cAA-induced ElTIR-STING oligomer ([3]; SEC-MALS, 0.11 mM cyclic di-nucleotide): 3937–7883 kDa
- oligomeric state induced (in words) ([3]; gel filtration, 2-fold molar excess of cAA, dimeric without ligand): large oligomers
- ΔRFU after 10 mins (single replicates) ([4]; 1 μM cAA): 3735 RFU and 3756 RFU and 9276 RFU
- ΔRFU after 10 mins, Average ([4]; 1 μM cAA): 5589 RFU
- ΔRFU after 10 mins (single replicates) ([4]; 10 μM cAA): 3586 RFU and 4211 RFU and 4642 RFU
- ΔRFU after 10 mins, Average ([4]; 10 μM cAA): 4146 RFU
- ΔRFU after 10 mins (single replicates) ([4]; 100 μM cAA): 4282 RFU and 3852 RFU and 4467 RFU
- ΔRFU after 10 mins, Average ([4]; 100 μM cAA): 4200 RFU
- activation of NAD+ cleavage activity (in words) ([4]; full-length ElTIR-STING, up to 100 μM cAA): could not activate
- OD600 ([5]; time 0 min, 300 μM cAA (Fig. 4b legend)): 0.028 (2×) and 0.026
- OD600 ([5]; time 20 min, 300 μM cAA): 0.036 and 0.037 and 0.034
- OD600 ([5]; time 40 min, 300 μM cAA): 0.056 (2×) and 0.054
- OD600 ([5]; time 60 min, 300 μM cAA): 0.083 (2×) and 0.079
- OD600 ([5]; time 80 min, 300 μM cAA): 0.125 and 0.124 and 0.119
- OD600 ([5]; time 100 min, 300 μM cAA): 0.186 and 0.183 and 0.175
- OD600 ([5]; time 120 min, 300 μM cAA): 0.252 (2×) and 0.244
- OD600 ([5]; time 140 min, 300 μM cAA): 0.33 and 0.331 and 0.326
- OD600 ([5]; time 160 min, 300 μM cAA): 0.408 (2×) and 0.41
- OD600 ([5]; time 180 min, 300 μM cAA): 0.503 and 0.497 and 0.506
- OD600 ([5]; time 200 min, 300 μM cAA): 0.563 and 0.565 and 0.575
- OD600 ([5]; time 220 min, 300 μM cAA): 0.612 and 0.615 and 0.627
- OD600 ([5]; time 240 min, 300 μM cAA): 0.66 (2×) and 0.677
- OD600 ([5]; time 260 min, 300 μM cAA): 0.7 and 0.704 and 0.715
- OD600 ([5]; time 280 min, 300 μM cAA): 0.73 and 0.732 and 0.743
- OD600 ([5]; time 300 min, 300 μM cAA): 0.765 and 0.764 and 0.784
- OD600 ([5]; time 320 min, 300 μM cAA): 0.798 and 0.804 and 0.81
- OD600 ([5]; time 340 min, 300 μM cAA): 0.822 and 0.831 and 0.839
- OD600 ([5]; time 360 min, 300 μM cAA): 0.854 and 0.863 and 0.865
- OD600 ([5]; time 380 min, 300 μM cAA): 0.875 and 0.886 and 0.885
- OD600 ([5]; time 400 min, 300 μM cAA): 0.892 and 0.904 and 0.902
- OD600 ([5]; time 420 min, 300 μM cAA): 0.901 and 0.917 and 0.912
- OD600 ([5]; time 440 min, 300 μM cAA): 0.911 and 0.927 and 0.92
- OD600 ([5]; time 460 min, 300 μM cAA): 0.919 and 0.935 and 0.929
- OD600 ([5]; time 480 min, 300 μM cAA): 0.926 and 0.943 and 0.935
- OD600 ([5]; time 500 min, 300 μM cAA): 0.933 and 0.952 and 0.942
- effect on growth of E. coli expressing ElTIR-STING (in words) ([5]; with vs without addition of cAA and vs empty vector): no differences
